Source: PubChem BioAssay (NCI)
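Five compound concentrations were applied to cells in 96-well plates for 48 hours; endpoints were derived by simple linear interpolation of the resulting dose-response curve. TGI: total growth inhibition.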

These compounds were tested on MALME-3M melanoma (assay: inhibition of tumour cell growth, NCI panel, 48 h).

SMILES	TGI
N#[O+].O=S(=O)([O-])[O-].[NH2-].[NH2-].[NH2-].[NH2-].[NH2-].[Ru+5]	27.7 µM

Each compound was assayed on DU-145 prostate (assay: inhibition of tumour cell growth, NCI panel, 48 h).

SMILES	TGI
CC1=C2C3=C(C)C(=O)C(C)(C)CC[C@@]3(C)[C@]2(C)CCC(C)(C)C1=O	> 100 µM
O=C1NNC(=O)C2C3c4ccccc4C(c4ccccc43)C12 (stereo not drawn)	> 100 µM
COc1cccc(C2c3cc4c(cc3OC(N3CCCC3)C2C)OCO4)c1 (stereo not drawn)	58.6 µM
O=P(c1ccccc1)(c1ccccc1)C(NCc1ccccc1)c1ccc(F)cc1 (stereo not drawn)	45.2 µM
CCOC(=O)C(Cl)(NC(=O)c1ccc(F)cc1)C(F)(F)F (stereo not drawn)	> 100 µM
CC1CN=C(Nc2ccc(S(N)(=O)=O)cc2)S1 (stereo not drawn)	> 100 µM
CC(=O)NCc1nc(C#N)c(N)o1	> 100 µM
CSc1nc(Cl)c2c(n1)Sc1nc3cc4c(cc3n1C2O)OCO4 (stereo not drawn)	> 100 µM
Cc1[nH]c(=O)[nH]c(=S)c1C(=O)NC(C)(CO)CO	> 100 µM
COc1ccc(-c2c(C(C)=O)c(-c3ccccc3)n(C3OC(COC(C)=O)C(OC(C)=O)C(OC(C)=O)C3OC(C)=O)c(=S)c2C#N)cc1 (stereo not drawn)	> 100 µM
O=C1SCC(O)=C1/C=N/Nc1nc2ccccc2o1	> 100 µM
CCOC(=O)Cn1sc2ncc([N+](=O)[O-])cc2c1=O	> 100 µM
CN1CCC(OC(=O)Oc2ccccc2)(c2ccccc2)CC1	> 100 µM
CCN(CC)Cc1cc(Nc2ccnc3ccc4c(nnn4C)c23)ccc1O	31.4 µM
COC(=O)c1ccc2c(c1)CC1(C2)Cc2cc3c(cc2C1=O)CCC3 (stereo not drawn)	> 100 µM
S=C1Cc2c([nH]c3ccccc23)-c2ccccc2N1	> 100 µM

These compounds were tested on U251 CNS (assay: inhibition of tumour cell growth, NCI panel, 48 h).

SMILES	TGI
O=C1c2ccccc2S[C@@H](O)[C@@H]2CCCN12	> 100 µM
CC1=C2C3=C(C)C(=O)C(C)(C)CC[C@@]3(C)[C@]2(C)CCC(C)(C)C1=O	> 100 µM
Cc1cc(=O)[nH]c(NNC(C#N)c2ccc(O)cc2)n1 (stereo not drawn)	> 100 µM
O=C1NNC(=O)C2C3c4ccccc4C(c4ccccc43)C12 (stereo not drawn)	> 100 µM
O=C(CSc1nnc(Cc2ccccc2)o1)Nc1cccc([N+](=O)[O-])c1	> 100 µM
O=C(CC(=O)n1nc(-c2ccccc2)c(N=Nc2ccc(Cl)cc2)c1-c1ccccc1)Nc1cccc(Cl)c1	> 100 µM
O=P(c1ccccc1)(c1ccccc1)C(NCc1ccccc1)c1ccc(F)cc1 (stereo not drawn)	30 µM
CCOC(=O)C(Cl)(NC(=O)c1ccc(F)cc1)C(F)(F)F (stereo not drawn)	> 100 µM
CC1CN=C(Nc2ccc(S(N)(=O)=O)cc2)S1 (stereo not drawn)	> 100 µM
CC(=O)NCc1nc(C#N)c(N)o1	> 100 µM
COc1cc2c(c(OC)c1OC)-c1ccc(SC)c(=O)cc1C(CC(=O)Oc1ccc([N+](=O)[O-])cc1)C2 (stereo not drawn)	1.43 µM
CSc1nc(Cl)c2c(n1)Sc1nc3cc4c(cc3n1C2O)OCO4 (stereo not drawn)	> 50.1 µM
CC(=O)NC(CCCN)C(=O)NCc1ccccc1 (stereo not drawn)	> 100 µM
Cc1[nH]c(=O)[nH]c(=S)c1C(=O)NC(C)(CO)CO	> 100 µM
Cc1nnc([C@@]2(C)CC[C@H]3[C@@H](CC=C4C[C@@H](O)CC[C@@]43C)[C@@H]2CC#N)o1	> 100 µM
COc1ccc(-c2c(C(C)=O)c(-c3ccccc3)n(C3OC(COC(C)=O)C(OC(C)=O)C(OC(C)=O)C3OC(C)=O)c(=S)c2C#N)cc1 (stereo not drawn)	> 100 µM
CCCCCCCCCCCCCCCCCc1cccc(OCOCCOC)c1CO	> 100 µM
O=C1CCC(c2ccccc2)C(O)(C(=O)O)C1 (stereo not drawn)	> 100 µM
N#CCCN(CCC#N)c1ccc(C(=O)NN)cc1	> 100 µM
CN1CCC(OC(=O)Oc2ccccc2)(c2ccccc2)CC1	44.9 µM
CC1=CC(=O)NP(=O)(Oc2ccc(C)cc2)N1 (stereo not drawn)	> 100 µM
CC(=O)OC1CC2OC(Cc3ccccc32)O1 (stereo not drawn)	> 100 µM
CCOC(=O)CC(NC(=O)c1nc[nH]c1[N+](=O)[O-])C(=O)OCC (stereo not drawn)	36.9 µM
COC(=O)c1ccc2c(c1)CC1(C2)Cc2cc3c(cc2C1=O)CCC3 (stereo not drawn)	> 100 µM
N#[O+].O=S(=O)([O-])[O-].[NH2-].[NH2-].[NH2-].[NH2-].[NH2-].[Ru+5]	> 100 µM

The compounds below were run on K-562 leukemia (assay: inhibition of tumour cell growth, NCI panel, 48 h).

SMILES	TGI
O=C1c2ccccc2S[C@@H](O)[C@@H]2CCCN12	> 100 µM
CC1=C2C3=C(C)C(=O)C(C)(C)CC[C@@]3(C)[C@]2(C)CCC(C)(C)C1=O	> 100 µM
Cc1cc(=O)[nH]c(NNC(C#N)c2ccc(O)cc2)n1 (stereo not drawn)	> 100 µM
O=C1NNC(=O)C2C3c4ccccc4C(c4ccccc43)C12 (stereo not drawn)	> 100 µM
O=C(CSc1nnc(Cc2ccccc2)o1)Nc1cccc([N+](=O)[O-])c1	> 100 µM
O=C(CC(=O)n1nc(-c2ccccc2)c(N=Nc2ccc(Cl)cc2)c1-c1ccccc1)Nc1cccc(Cl)c1	> 100 µM
COc1cccc(C2c3cc4c(cc3OC(N3CCCC3)C2C)OCO4)c1 (stereo not drawn)	5.72 µM
CN(C)/N=C(\CCN1CCCC1)CC(c1ccccc1)c1c(O)c2ccccc2oc1=O (stereo not drawn)	> 100 µM
O=P(c1ccccc1)(c1ccccc1)C(NCc1ccccc1)c1ccc(F)cc1 (stereo not drawn)	65.4 µM
CCOC(=O)C(Cl)(NC(=O)c1ccc(F)cc1)C(F)(F)F (stereo not drawn)	> 100 µM
CC1CN=C(Nc2ccc(S(N)(=O)=O)cc2)S1 (stereo not drawn)	> 100 µM
CC(=O)NCc1nc(C#N)c(N)o1	> 100 µM
CSc1nc(Cl)c2c(n1)Sc1nc3cc4c(cc3n1C2O)OCO4 (stereo not drawn)	> 100 µM
CC(=O)NC(CCCN)C(=O)NCc1ccccc1 (stereo not drawn)	> 100 µM
Cc1[nH]c(=O)[nH]c(=S)c1C(=O)NC(C)(CO)CO	> 100 µM
Cc1nnc([C@@]2(C)CC[C@H]3[C@@H](CC=C4C[C@@H](O)CC[C@@]43C)[C@@H]2CC#N)o1	> 100 µM
